Experimental data taken from US12612410B2 (CHILDREN'S HOSPITAL MEDICAL CENTER, priority 2020, dated 2026).

What was measured:
IRAK4 = target: T1, IRAK4 (Homo sapiens, UniProt Q9NWZ3); assay: Reaction Biology NanoBRET target engagement assay, IRAK4; format: cell-based; details: transfected HEK-293 cells
T1 sequence (Q9NWZ3 1-460): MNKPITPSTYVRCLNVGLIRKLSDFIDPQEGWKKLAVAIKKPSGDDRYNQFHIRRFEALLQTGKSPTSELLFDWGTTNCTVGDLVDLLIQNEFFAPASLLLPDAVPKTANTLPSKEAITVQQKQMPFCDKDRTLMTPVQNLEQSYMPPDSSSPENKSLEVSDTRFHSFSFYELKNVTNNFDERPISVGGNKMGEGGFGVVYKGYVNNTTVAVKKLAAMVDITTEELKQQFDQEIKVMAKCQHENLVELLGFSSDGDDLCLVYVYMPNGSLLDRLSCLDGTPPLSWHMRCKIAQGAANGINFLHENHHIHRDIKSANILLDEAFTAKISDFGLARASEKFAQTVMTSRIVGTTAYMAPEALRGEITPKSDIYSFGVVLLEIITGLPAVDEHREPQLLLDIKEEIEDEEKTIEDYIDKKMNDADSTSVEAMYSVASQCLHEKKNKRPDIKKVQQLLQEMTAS
Source text: The NanoBRET assay measures kinase engagement in real time in the context of the intact cell. Unlike the previously described biochemical kinase assay methodologies in Examples 26-27, the NanoBRET assay measures the binding and activity characteristics under equilibrium conditions using full-length kinases in the presence of cellular concentrations of ATP in live, uncompromised cells. As such, the assay provides a more relevant assessment of kinase potency and selectivity that would be expected to be observed in the native cellular environment, where potency is often considerably lower than that observed in the isolated biochemical assays (Vasta, J. D. et al., (2018) Cell Chem. Biol. 25, 206-214). The assay uses a Kinase-NanoLuc® fusion vector expressing a kinase protein to which a luciferase tag has been added, a cell-permeant fluorescent NanoBRET™ tracer, a NanoLuc® substrate, and an extracellular NanoLuc® inhibitor. Upon expression of the luciferase-tagged kinase, cells will produce a strong BRET signal only in the presence of the NanoBRET™ tracer. The extracellular NanoLuc® inhibitor ensures that the BRET signal observed emanates only from live cells. Because the BRET signal has tight distance constraints, addition of the test compound will decrease the BRET signal if the compound competes with the NanoBRET™ tracer for binding to the kinase domain. Under the appropriate tracer conditions established by the manufacturer, quantitative intracellular affinity and relative potency can then be determined using Mass Action model equations.
HEK-293 cells were purchased from ATCC. FuGENEHD Transfection Reagent, Kinase-NanoLucfusion plasmids, Transfection Carrier DNA, NanoBRETTracers and dilution buffer, NanoBRETNano-Glo Substrate, Extracellular NanoLucInhibitor were obtained from Promega.
Assays were conducted following Promega assay protocol with some modifications. HEK-293 Cells were transiently transfected with Kinase-NanoLucFusion Vector DNA by FuGENEHD Transfection Reagent. Testing compounds were delivered into 384 well assay plate by Echo 550 (Labcytelnc, Sunnyvale, CA). Transfected cells were harvested and mixed with NanoBRETTracer Reagent and dispensed into 384 well plates and incubated at 37° C. in 5% CO2 cell culture incubator for 1 hour. The NanoBRETNano-Glo Substrate plus Extracellular NanoLucInhibitor Solution were added into the wells of the assay plate and incubated for 2-3 minutes at room temperature. The donor emission wavelength (460 nm) and acceptor emission wavelength (600 nm) were measured in the EnVisionplate reader. The BRET Ratios were calculated. BRET Ratio=[(Acceptor sample÷Donor sample)−(Acceptor no-tracer control÷Donor no-tracer control)]. The IC50 values of compounds were calculated with Prism GraphPad program.
NanoBRET™ Target Engagement Assay Protocol
1. Transient Transfection of HEK-293 Cells NanoLuc® Fusion Vector DNA
• 1). Cultivate HEK-293 cells (70-80% confluence) appropriately prior to assay. Trypsinize and collect HEK-293 cells. • 2). Prepare lipid: DNA complexes as follows: • a. Prepare a […] solution of DNA in Opti-MEM without serum that consists of the following ratios of carrier DNA and DNA encoding NanoLuc® fusion. 9.0 µg/mL of Transfection Carrier DNA, […] of NanoLuc fusion vector DNA and 1 mL of Opti-MEM without phenol red. Mix thoroughly. • b. Add 30 l of FuGENE HD Transfection Reagent into each milliliter of DNA mixture to form lipid: DNA complex. • c. Mix by inversion 10 times. • d. Incubate at ambient temperature for 20 minutes to allow complexes to form. • 3). In a sterile, conical tube, mix 1 part of lipid: DNA complex with 20 parts of HEK-293 cells in suspension. Mix gently by inversion 5 times. • 4). Dispense cells+lipid: DNA complex into a sterile tissue culture dish and incubate for 22-24 hours. 2. Addition of Test Compounds (dry plate shooting)
Each test compound is delivered from the compound source plate to the wells of 384-well white NBS plate by Echo 550.
3. […]

MOLM14 F691L cells = assay: MOLM14 F691L cell viability assay (Cell Titer Glo); format: cell-based
Outline: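 MOLM14 cells carrying FLT3 D835Y or F691L were seeded at 1000 cells/well in RPMI-1640 with 20% FBS and dosed at 22 concentrations, 1:2 dilutions from 10 μM. Viability after 48 h by Cell Titer Glo luminescence; 2.3 μM bortezomib as cytotoxic control.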

Compound	IC50 (IRAK4) [nM]	IC50 (MOLM14 F691L cells; Homo sapiens, MOLM-14, 48 h) [nM]	IC50 (MOLM14 F691L cells; 48 hours) [nM]
CC1(c2cn3c(-c4cccc(N[C@H]5CNC[C@@H]5F)n4)cnc3cn2)CC1 [Compound 1, N-((3S,4S)-4-fluoropyrrolidin-3-yl)-6-(6-(1-methylcyclopropyl)imidazo[1,2-a]pyrazin-3-yl)pyridin-2-amine]	< 0.5	169	–
CC1(c2cn3c(-c4cccc(N[C@@H]5CCNC5)n4)cnc3cn2)CC1 [Compound 3, (R)-6-(6-(1-methylcyclopropyl)imidazo[1,2-a]pyrazin-3-yl)-N-(pyrrolidin-3-yl)pyridin-2-amine]	< 0.5	–	–
CC1(c2cn3c(-c4cccc(N[C@H]5CNCC56CC6)n4)cnc3cn2)CC1 [Compound 5, (R)-N-(6-(6-(1-methylcyclopropyl)imidazo[1,2-a]pyrazin-3-yl)pyridin-2-yl)-5-azaspiro[2.4]heptan-7-amine]	< 0.5	34	–
FC(F)c1cn2c(-c3cccc(N[C@H]4CNC[C@@H]4F)n3)cnc2cn1 [Compound 16, 6-(6-(difluoromethyl)imidazo[1,2-a]pyrazin-3-yl)-N-((3S,4S)-4-fluoropyrrolidin-3-yl)pyridin-2-amine]	< 0.5	226	–
CC(C)(O)c1cn2c(-c3cccc(N[C@H]4CNCC[C@@H]4F)n3)cnc2cn1 [Compound 31, 2-(3-(6-(((3S,4S)-4-fluoropiperidin-3-yl)amino)pyridin-2-yl)imidazo[1,2-a]pyrazin-6-yl)propan-2-ol]	< 0.5	249	–
CC(C)(O)c1cn2c(-c3nc(N[C@H]4CNC[C@@H]4F)c(F)cc3F)cnc2cn1 [Compound 33, 2-(3-(3,5-difluoro-6-(((3S,4S)-4-fluoropyrrolidin-3-yl)amino)pyridin-2-yl)imidazo[1,2-a]pyrazin-6-yl)propan-2-ol]	< 0.5	2660	–
CC(C)(O)c1cn2c(-c3nc(N[C@H]4CNCC[C@@H]4F)c(F)cc3F)cnc2cn1 [Compound 35, 2-(3-(3,5-difluoro-6-(((3S,4S)-4-fluoropiperidin-3-yl)amino)pyridin-2-yl)imidazo[1,2-a]pyrazin-6-yl)propan-2-ol]	< 0.5	841	–
FC(F)(F)COc1cn2c(-c3cccc(N[C@@H]4CCNC4)n3)cnc2cn1 [Compound 38, (R)-N-(pyrrolidin-3-yl)-6-(6-(2,2,2-trifluoroethoxy)imidazo[1,2-a]pyrazin-3-yl)pyridin-2-amine]	< 0.5	–	–
Cn1cc(-c2cn3c(-c4cccc(N[C@@H]5CCCNC5)n4)cnc3cn2)cn1 [Compound 43, (R)-6-(6-(1-methyl-1H-pyrazol-4-yl)imidazo[1,2-a]pyrazin-3-yl)-N-(piperidin-3-yl)pyridin-2-amine]	84	79	–
F[C@H]1CCNC[C@@H]1Nc1cccc(-c2cnc3cnc(C4CC4)cn23)n1 [Compound 51, 6-(6-cyclopropylimidazo[1,2-a]pyrazin-3-yl)-N-((3S,4S)-4-fluoropiperidin-3-yl)pyridin-2-amine]	0.6	53	–
O=C1CCCN1c1cn2c(-c3nc(N[C@H]4CNCC[C@@H]4F)c(F)cc3F)cnc2cn1 [Compound 107, 1-[3-[3,5-difluoro-6-[[(3S,4S)-4-fluoro-3-piperidyl]amino]-2-pyridyl]imidazo[1,2-a]pyrazin-6-yl]pyrrolidin-2-one]	10	97	–
O=C1CCCN1c1cn2c(-c3cccc(N[C@H]4CNC[C@@H]4F)n3)cnc2cn1 [Compound 121, 1-(3-(6-(((3S,4S)-4-fluoropyrrolidin-3-yl)amino)pyridin-2-yl)imidazo[1,2-a]pyrazin-6-yl)pyrrolidin-2-one]	2	173	–

Continued, values first:

IC50 (IRAK4) [nM]	IC50 (MOLM14 F691L cells; Homo sapiens, MOLM-14, 48 h) [nM]	IC50 (MOLM14 F691L cells; 48 hours) [nM]	Compound
< 0.5	376	–	CC(O)(c1cn2c(-c3cccc(N[C@H]4CNC[C@@H]4F)n3)cnc2cn1)C(F)(F)F (single isomer, unassigned) [Compound 77]
< 0.5	196	–	CC(O)(c1cn2c(-c3cccc(N[C@H]4CNCC[C@@H]4F)n3)cnc2cn1)C(F)(F)F (single isomer, unassigned) [Compound 80]
< 0.5	211	–	CC(O)(c1cn2c(-c3cccc(N[C@@H]4CCCNC4)n3)cnc2cn1)C(F)(F)F (single isomer, unassigned) [Compound 81]
< 0.5	–	157	CC(O)(c1cn2c(-c3cccc(N[C@H]4CNCC[C@@H]4F)n3)cnc2cn1)C(F)(F)F (single isomer, unassigned) [Compound 82]
< 0.5	74	–	FC(F)c1cn2c(-c3cccc(N[C@H]4CNCC[C@@H]4F)n3)cnc2cn1 [Compound 25, 6-(6-(difluoromethyl)imidazo[1,2-a]pyrazin-3-yl)-N-((3S,4S)-4-fluoropiperidin-3-yl)pyridin-2-amine]
< 0.5	1330	–	CC(C)(O)c1cn2c(-c3nc(N[C@@H]4CCCNC4)c(F)cc3F)cnc2cn1 [Compound 34, (R)-2-(3-(3,5-difluoro-6-(piperidin-3-ylamino)pyridin-2-yl)imidazo[1,2-a]pyrazin-6-yl)propan-2-ol]
1	192	–	F[C@H]1CNC[C@@H]1Nc1cccc(-c2cnc3cnc(C4CC4)cn23)n1 [Compound 50, 6-(6-cyclopropylimidazo[1,2-a]pyrazin-3-yl)-N-((3S,4S)-4-fluoropyrrolidin-3-yl)pyridin-2-amine]
< 0.5	–	–	FC(F)COc1cn2c(-c3cccc(N[C@H]4CNC[C@@H]4F)n3)cnc2cn1 [Compound 58, 6-(6-(2,2-difluoroethoxy)imidazo[1,2-a]pyrazin-3-yl)-N-((3S,4S)-4-fluoropyrrolidin-3-yl)pyridin-2-amine]
0.9	26	–	O=S1(=O)CCCN1c1cn2c(-c3cccc(N[C@H]4CNCC[C@@H]4F)n3)cnc2cn1 [Compound 97, 2-(3-(6-(((3S,4S)-4-fluoropiperidin-3-yl)amino)pyridin-2-yl)imidazo[1,2-a]pyrazin-6-yl)isothiazolidine 1,1-dioxide]
1	183	–	O=C1CCCN1c1cn2c(-c3nc(N[C@@H]4CCCNC4)c(F)cc3F)cnc2cn1 [Compound 108, (R)-1-(3-(3,5-difluoro-6-(piperidin-3-ylamino)pyridin-2-yl)imidazo[1,2-a]pyrazin-6-yl)pyrrolidin-2-one]
2	54	–	O=C1CCCN1c1cn2c(-c3cccc(N[C@H]4CNCC[C@@H]4F)n3)cnc2cn1 [Compound 119, 1-(3-(6-(((3S,4S)-4-fluoropiperidin-3-yl)amino)pyridin-2-yl)imidazo[1,2-a]pyrazin-6-yl)pyrrolidin-2-one]
< 0.5	2050	–	CC(C)(C)c1cn2c(-c3nc(N[C@H]4CNC[C@@H]4F)c(F)cc3F)cnc2cn1 [Compound 125]
